Results published in patent US6399764B1, “DNA molecule encoding for cellular uptake of mycobacterium tuberculosis and uses thereof” (priority 1997, dated 2002).
Entries after “also recorded” stand apart in the source; their conditions may differ.

Tested on: HeLa cells
Assay: Inhibition of rMcep1-coated fluorescent latex microsphere uptake
Type: cell-based

COC(=O)Nc1nc2ccc(C(=O)c3cccs3)cc2[nH]1 [Nocodazole]
inhibition of association/uptake of rMcep1-coated fluorescent beads (nocodazole up to 5 mg/ml, 1 hr preincubation at 4° C. then 5 hrs at 37° C., FIG. 5E): inhibited the association of the beads in a dose dependent fashion; also recorded: had a similar inhibitory effect at noncytotoxic concentrations

C=C1[C@@H](C)[C@H]2[C@H](Cc3ccccc3)NC(=O)[C@]23[C@H](OC(C)=O)/C=C/[C@@](C)(O)C(=O)[C@@H](C)C/C=C/[C@H]3[C@@H]1O [Cytochalasin D]
inhibition of association/uptake of rMcep1-coated fluorescent beads (cytochalasin D 0.1-5 mg/ml, 1 h preincubation at 37° C., FIG. 5D): blocked the association of the protein-coated beads in a dose-dependent manner
inhibition of association/uptake of rMcep1-coated fluorescent beads (cytochalasin D 0.1-5 mg/ml, 1 h preincubation at 37° C., FIG. 5D, listed as cytochalasin D): blocked uptake of the fluorescent beads, but the inhibition was not complete

CN(C)c1cccc2c(S(=O)(=O)NCCCCCN)cccc12 [MDC, Monodansylcadaverine]
inhibition of association/uptake of rMcep1-coated fluorescent beads (MDC 1-100 mm, 3 h preincubation at 37° C., FIG. 5F): partly inhibited the association
inhibition of association/uptake of rMcep1-coated fluorescent beads (MDC 1-100 mm, 3 h preincubation at 37° C., FIG. 5F, listed as Monodansylcadaverine (MDC)): partly inhibited the bead uptake
